In brackets after ≈: the same amount, converted by molar mass. A value given as a limit tells only on which side of the number the result lay.

Experiment [1] deals with Staphylococcus aureus. The experiment can be described thus: Antibacterial activity against multi drug resistance Staphylococcus aureus after 20 hrs by NCCLS-based two-fold broth dilution method. The class given is functional. On the technique in general: In broth dilution the organism is exposed to a series of concentrations in liquid medium.
Experiment [2] relates to Staphylococcus aureus. The experiment can be described thus: Antibacterial activity against methicillin resistant Staphylococcus aureus after 20 hrs by NCCLS-based two-fold broth dilution method. The class given is functional. To be noted: read-out: MIC.
The next experiment has as its system Enterococcus faecalis. The experiment can be described thus: Antibacterial activity against t Enterococcus faecalis VRE after 20 hrs by NCCLS-based two-fold broth dilution method. The class given is functional. The settings on record: read-out: MIC.
The subject of experiment [3] is Staphylococcus aureus. The experiment can be described thus: Antibacterial activity against Staphylococcus aureus after 20 hrs by NCCLS-based two-fold broth dilution method. The class given is functional.
Experiment [4] has as its system Mycolicibacterium smegmatis. Put plainly: Antibacterial activity against Mycobacterium smegmatis after 20 hrs by NCCLS-based two-fold broth dilution method. The class given is functional.
In experiment [5] the target is T1, Phospho-N-acetylmuramoyl-pentapeptide-transferase (Bacillus subtilis (strain 168), UniProt Q03521).
T1 sequence (Q03521 whole entry): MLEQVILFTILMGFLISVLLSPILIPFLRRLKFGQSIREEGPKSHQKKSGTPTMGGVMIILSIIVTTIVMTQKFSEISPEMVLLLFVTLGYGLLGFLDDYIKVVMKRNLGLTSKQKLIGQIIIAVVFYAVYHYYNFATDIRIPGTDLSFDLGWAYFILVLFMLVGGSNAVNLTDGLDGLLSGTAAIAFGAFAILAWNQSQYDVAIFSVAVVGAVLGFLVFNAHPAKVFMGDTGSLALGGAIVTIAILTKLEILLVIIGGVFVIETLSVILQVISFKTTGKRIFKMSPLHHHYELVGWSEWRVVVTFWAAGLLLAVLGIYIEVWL
The experiment can be described thus: Inhibition of MraY in Bacillus subtilis using UDP-MurNAc-[14C]pentapeptide as substrate by radioactivity scanning assay.

Another experiment deals with Mycobacterium avium. Put plainly: Antibacterial activity against Mycobacterium avium. The class given is functional.
A further experiment concerns Mycolicibacterium vaccae. The experiment can be described thus: Antibacterial activity against Mycobacterium vaccae. The class given is functional.
Experiment [6] deals with Mycolicibacterium smegmatis. Put plainly: Antibacterial activity against Mycobacterium smegmatis. The class given is functional.
Experiment [7] concerns Mycobacterium intracellulare. The experiment can be described thus: Antibacterial activity against Mycobacterium intracellulare. The class given is functional.
Experiment [8] deals with Mycobacterium tuberculosis. Put plainly: Antibacterial activity against Mycobacterium tuberculosis. The class given is functional.

A word on the MIC: it is the least concentration at which growth counts as inhibited. For `CCCCCCCCCCCCCCCC(=O)O[C@H]1CN[C@@H]([C@H](O[C@@H]2O[C@H](CN)[C@@H](O)[C@H]2O)[C@H]2O[C@@H](n3ccc(=O)[nH]c3=O)[C@H](O)[C@@H]2O)C(=O)N(C)[C@@H]1C(=O)O` [DESMETHYLPALMITOYLCAPRAZOL], the MIC against Staphylococcus aureus [1] is 3.13 µg/mL (≈ 3.91 µM); in the experiment with Staphylococcus aureus [2], 6.25 to 12.5 µg/mL (≈ 7.81 to 15.6 µM); with Enterococcus faecalis it was 12.5 µg/mL (≈ 15.6 µM); with Staphylococcus aureus [3], 1.56 µg/mL (≈ 1.95 µM); in [4] it was 25 µg/mL (≈ 31.3 µM).

Broadly, the IC50 is the midpoint of a concentration-inhibition curve. In the case of `NC[C@H]1O[C@@H](O[C@@H](c2cn(Cc3ccc(COc4ccc(C(=O)c5ccccc5)cc4)cc3)nn2)[C@H]2O[C@@H](n3ccc(=O)[nH]c3=O)[C@H](O)[C@@H]2O)[C@H](O)[C@@H]1O`, in experiment [5], the IC50 was 50 µM.

As to `CCCCCCCCCCCCC[C@@H](CC(=O)O[C@H]1CN(C)[C@@H]([C@H](O[C@@H]2O[C@H](CN)[C@@H](O)[C@H]2O)[C@H]2O[C@@H](n3ccc(=O)[nH]c3=O)[C@H](O)[C@@H]2O)C(=O)N(C)[C@@H]1C(=O)O)OC(=O)C[C@H](C)CC(=O)O[C@@H]1O[C@@H](C)[C@H](OC)[C@@H](OC)[C@H]1OC`, the MIC is less than 0.025 µg/mL in the experiment on Mycobacterium avium; 0.2 µg/mL (≈ 0.174 µM) in the experiment with Mycolicibacterium vaccae; 0.78 to 1.56 µg/mL (≈ 0.68 to 1.36 µM) in experiment [6]; 0.78 µg/mL (≈ 0.68 µM) in experiment [7]; 1.56 µg/mL (≈ 1.36 µM) in experiment [8].

Turning to `CCCCCCCCCCCCCCCC(=O)O[C@H]1CN(C)[C@@H]([C@H](O[C@@H]2O[C@H](CN)[C@@H](O)[C@H]2O)[C@H]2O[C@@H](n3ccc(=O)[nH]c3=O)[C@H](O)[C@@H]2O)C(=O)N(C)[C@@H]1C(=O)O` [PALMITOYL CAPRAZOL], the MIC is 3.13 µg/mL (≈ 3.85 µM) against Staphylococcus aureus [1]; 6.25 µg/mL (≈ 7.68 µM) with Staphylococcus aureus [2]; 12.5 µg/mL (≈ 15.4 µM) in the experiment on Enterococcus faecalis; 1.56 µg/mL (≈ 1.92 µM) against Staphylococcus aureus [3]; 6.25 µg/mL (≈ 7.68 µM) in experiment [4].

Values taken from ChEMBL document CHEMBL4402510, “Caprazamycins: Promising lead structures acting on a novel antibacterial target MraY” (Eur J Med Chem, 2019).
